Experimental data taken from patent US4614827A, “Method for isolating vinyl salt compounds from aqueous solutions” (Rohm GmbH, priority 1983, dated 1986).

assay: Water solubility at 20° C.
Text: Of special interest are the salts of acrylic and methacrylic acid and also of maleic acid, fumaric acid, and itaconic acid, and more particularly the alkali metal salts, and especially the sodium, potassium, and lithium salts; the alkaline earth metal salts, and especially the magnesium, calcium, strontium, and barium salts; the salts of subgroups I and II of the periodic table, and especially the copper and zinc salts; the salts of main and subgroup IV (Ge, Sn, Pb, Ti, Zr, Hf), and especially the germanium, tin, lead, titanium, and zirconium salts; the salts of subgroup VIII (Fe, Ru, Os, Co, Rh, Ir, Ni, Pd, Pt), and especially the iron, cobalt, and nickel salts; the salts of main and subgroups V ((As, Sb, Bi, V, Nb, Ta) and of subgroup VII (Mn, Tc, Re), and especially the antimony, bismuth, vanadium, and manganese salts; and the ammonium salts, including those derived from ammonium cations of the formula [drawing 1] wherein R1 and R2 are hydrogen or an alkyl group having from 1 to 18 carbon atoms, and preferably from 1 to 5 carbon atoms, and R3 and R4 are hydrogen or an alkyl group having from 1 to 18 carbon atoms, and preferably from 1 to 6 carbon atoms, or wherein R3 and R4, optionally with inclusion of one or two further hetero atoms such as nitrogen, oxygen, or sulfur, form a five- or six-membered heterocyclic system.

Structure (SMILES)	Water solubility at 20° C.
C=C(C)C(=O)O [Barium dimethacrylate]	40.5 g/salt/100 g water
C=C(C)C(=O)[O-].[Li+] [Lithium methacrylate]	87.5 g/salt/100 g water
C=C(C)C(=O)[O-].[K+] [Potassium methacrylate]	101.8 g/salt/100 g water
C=C(C)C(=O)[O-].[Na+] [Sodium methacrylate]	95.3 g/salt/100 g water
C=C(C)C(=O)O [Strontium dimethacrylate]	27.5 g/salt/100 g water

assay: Water solubility of spray dried product (qualitative); assay type: physicochemical
Text: Clear beads, some of them vitrified, were obtained. The major portion of these ranged in size from 10 to 20 microns; the largest particles were about 80 microns. The residual moisture of the spray dried material ranged from 0.35 to 0.55 percent and the bulk density from 540 to 600 grams/liter. Higher bulk densities can be obtained by increasing the operating temperature. Because of the good water solubility of the products being dried, the spray drying apparatus can be cleaned quite easily.
Clear beads in the range of 10 to 100 microns are obtained. The residual moisture of the spray dried material is less than 0.3%.

Structure (SMILES)	water solubility (in words)
C=C(C)C(=O)[O-].[Na+] [Sodium methacrylate]	readily water soluble
